Laboratory results published in patent US20240399142A1, “Methods Of Using Alternating Electric Fields And Checkpoint Inhibitors” (NOVOCURE GMBH, priority 2023, published 2024).

Assay: LUNAR study safety: adverse events per CTCAE version 4.03, safety population
Type: in vivo, human
Method: Safety and treatment data were compiled from all patients who received any study therapy and were analyzed according to the actual treatment received. Analyses were performed using SAS software, version 9.4 (SAS Institute).

## CC(=O)O[C@@]12CO[C@@H]1C[C@H](O)[C@@]1(C)C(=O)[C@H](O)C3=C(C)[C@@H](OC(=O)[C@H](O)[C@@H](NC(=O)OC(C)(C)C)c4ccccc4)C[C@@](O)([C@@H](OC(=O)c4ccccc4)[C@H]21)C3(C)C [Docetaxel, docetaxel]
All grades
  Alopecia: 22 (32.4) no. (%)
  Anemia: 19 (27.9) no. (%)
  Any adverse event: 61 (89.7) no. (%)
  Arthralgia: 7 (10.3) no. (%)
  Asthenia: 10 (14.7) no. (%)
  Back pain: 4 (5.9) no. (%)
  Constipation: 10 (14.7) no. (%)
  Cough: 11 (16.2) no. (%)
  Decreased appetite: 11 (16.2) no. (%)
  Dermatitis: 0 no. (%)
  Diarrhea: 12 (17.6) no. (%)
  Dysphagia: 1 (1.5) no. (%)
  Dyspnea: 19 (27.9) no. (%)
  Fatigue: 18 (26.5) no. (%)
  Headache: 6 (8.8) no. (%)
  Hypoalbuminemia: 8 (11.8) no. (%)
  Hypokalemia: 8 (11.8) no. (%)
  Hyponatremia: 4 (5.9) no. (%)
  Nausea: 10 (14.7) no. (%)
  Neutropenia: 15 (22.1) no. (%)
  Neutrophil count decreased: 6 (8.8) no. (%)
  Oedema peripheral: 9 (13.2) no. (%)
  Pleural effusion: 8 (11.8) no. (%)
  Pneumonia: 11 (16.2) no. (%)
  Pruritus: 0 no. (%)
  Pyrexia: 9 (13.2) no. (%)
  Rash: 2 (2.9) no. (%)
  Rash maculopapular: 3 (4.4) no. (%)
  Skin irritation: 0 no. (%)
  Upper respiratory tract infection: 1 (1.5) no. (%)
  Vomiting: 7 (10.3) no. (%)
  White blood cell count decreased: 7 (10.3) no. (%)
Grade 3
  Acute myocardial infarction: 0 no. (%)
  Adenocarcinoma of colon: 0 no. (%)
  Alanine aminotransferase increased: 1 (1.5) no. (%)
  Anemia: 8 (11.8) no. (%)
  Anemia macrocytic: 1 (1.5) no. (%)
  Any adverse event: 23 (33.8) no. (%)
  Arthralgia: 0 no. (%)
  Ascites: 0 no. (%)
  Aspergillus infection: 0 no. (%)
  Asthenia: 4 (5.9) no. (%)
  Atrial tachycardia: 1 (1.5) no. (%)
  Autoimmune colitis: 0 no. (%)
  Back pain: 0 no. (%)
  Blood bilirubin increased: 0 no. (%)
  Bone pain: 1 (1.5) no. (%)
  Bronchiolitis: 0 no. (%)
  Bronchitis: 0 no. (%)
  C-reactive protein increased: 0 no. (%)
  Cancer pain: 1 (1.5) no. (%)
  Cardiac failure congestive: 0 no. (%)
  Cardiac tamponade: 0 no. (%)
  Cardiac ventricular thrombosis: 0 no. (%)
  Cataract: 0 no. (%)
  Chest pain: 0 no. (%)
  Cholangitis: 1 (1.5) no. (%)
  Cholecystitis: 0 no. (%)
  Cholelithiasis: 0 no. (%)
  Clostridium bacteremia: 0 no. (%)
  Coronary artery disease: 0 no. (%)
  Decreased appetite: 0 no. (%)
  Dehydration: 1 (1.5) no. (%)
  Diarrhea: 0 no. (%)
  Diverticulitis: 0 no. (%)
  Drug hypersensitivity: 1 (1.5) no. (%)
  Encephalitis: 0 no. (%)
  Esophagitis: 0 no. (%)
  Euthanasia: 0 no. (%)
  Fatigue: 4 (5.9) no. (%)
  Febrile neutropenia: 3 (4.4) no. (%)
  Femoral neck fracture: 0 no. (%)
  Forced expiratory volume decreased: 1 (1.5) no. (%)
  Gastroenteritis norovirus: 1 (1.5) no. (%)
  Gastroenteritis salmonella: 0 no. (%)
  General physical health deterioration: 0 no. (%)
  Hematochezia: 0 no. (%)
  Hepatic enzyme increased: 0 no. (%)
  Hip fracture: 0 no. (%)
  Hypercalcemia: 0 no. (%)
  Hyperglycemia: 1 (1.5) no. (%)
  Hyperkalaemia: 0 no. (%)
  Hypertriglyceridaemia: 0 no. (%)
  Hypoalbuminemia: 1 (1.5) no. (%)
  Hypocalcaemia: 0 no. (%)
  Hypokalemia: 0 no. (%)
  Hyponatremia: 2 (2.9) no. (%)
  Ileus: 1 (1.5) no. (%)
  Infection: 0 no. (%)
  Intestinal dilatation: 1 (1.5) no. (%)
  Intestinal hemorrhage: 1 (1.5) no. (%)
  Intestinal perforation: 0 no. (%)
  Large intestine perforation: 0 no. (%)
  Leukopenia: 3 (4.4) no. (%)
  Liver disorder: 1 (1.5) no. (%)
  Localized oedema: 0 no. (%)
  Lung abscess: 0 no. (%)
  Lymphocyte count decreased: 0 no. (%)
  Lymphopenia: 0 no. (%)
  Malignant ascites: 1 (1.5) no. (%)
  Malignant pleural effusion: 1 (1.5) no. (%)
  Malnutrition: 0 no. (%)
  Metastases to bone: 0 no. (%)
  Metastases to central nervous system: 2 (2.9) no. (%)
  Metastases to meninges: 0 no. (%)
  Metastases to skin: 0 no. (%)
  Mouth ulceration: 0 no. (%)
  Mucosal inflammation: 1 (1.5) no. (%)
  Multiple organ dysfunction syndrome: 0 no. (%)
  Muscular weakness: 1 (1.5) no. (%)
  Myalgia: 0 no. (%)
  Myocardial infarction: 1 (1.5) no. (%)
  Nausea: 0 no. (%)
  Neck pain: 1 (1.5) no. (%)
  Neuropathy peripheral: 0 no. (%)
  Neutropenia: 1 (1.5) no. (%)
  Neutrophil count decreased: 2 (2.9) no. (%)
  Non-cardiac chest pain: 1 (1.5) no. (%)
  Oedema peripheral: 2 (2.9) no. (%)
  Oral candidiasis: 0 no. (%)
  Pancreatic failure: 1 (1.5) no. (%)
  Pancreatitis: 0 no. (%)
  Pericardial effusion: 0 no. (%)
  Peripheral sensory: 1 (1.5) no. (%)
  Platelet count decreased: 0 no. (%)
  Pneumonia: 7 (10.3) no. (%)
  Pneumonia pseudomonal: 0 no. (%)
  Pneumonia staphylococcal: 0 no. (%)
  Pyelonephritis: 0 no. (%)
  Pyopneumothorax: 1 (1.5) no. (%)
  Pyrexia: 0 no. (%)
  Refeeding syndrome: 1 (1.5) no. (%)
  Respiratory tract infection: 0 no. (%)
  Right ventricular failure: 1 (1.5) no. (%)
